Patent US4680172A, “Devices and methods for treating memory impairment” (Ciba-Geigy Corporation, priority 1985, dated 1987)
Values joined by “and” are separate entries in the source; they are usually repeats but may differ in a detail not shown here. Equal values may be shown once.

How the values were obtained:
[1] = Stability of arecoline in solution; assay type: physicochemical; details: alkaline buffers
[2] = Partition coefficient (K) between aqueous phase and mineral oil; assay type: physicochemical; details: pH 10 buffer
From the text: (§1) The partion coefficient (K) of a compound between an aqueous phase and mineral oil has been used as an indication of its potential to diffuse across skin. Permeability appears to be optimal when the partition coefficient is 1. Arecoline in pH 10 buffer (99.9% dissociation to the free base) yielded partition coefficients of 0.756 and 0.654 for concentrations of 1.0 M and 0.01 M, respectively. Thus, arecoline in its free base form is expected to have good in vitro transdermal flux.

[3] = Dissociation to the free base in buffer; assay type: physicochemical; details: pH 10 buffer
From the text: as §1

[4] = Transdermal diffusion (flux) of aqueous arecoline through human cadaver skin, Franz diffusion cell; assay type: in vitro ADME
Protocol: In order further to test the permeability of arecoline to human skin, the transdermal diffusion of aqueous arecoline was monitored using human cadaver skin mounted in a Franz diffusion cell; see Current Problems in Dermatology, 7, 58 (1978) and the description of Franz diffusion cells and apparatus published by the Crown Glass Company, a copy of which may be found in the file history of this case. The flux, J, of each solution was calculated from a plot of change in concentration versus time.
The transdermal diffusion of arecoline was studied in several aqueous buffers from pH values of 6.4 to 9.0.
Most of the skin samples were obtained from the back area of human cadavers. There was no systematic study to determine if the choice of donor-side would change the rate; however, it is presumed that the rate will be fastest in portions of the anatomy where the stratum corneum is relatively thin (chest, back, anterior forearm) and slowest where the stratum corneum is thickest (heel of hand, bottom of foot).
Franz diffusion cells utilize the finite dose technique of in vitro drug delivery. Human cadaver skin was mounted in a diffusion chamber where it remined in constant contact with solution on both sides. The stratum corneum was in contact with a thin layer of concentrated drug in solution (donor side). The receiver side contained a constantly stirred, isotonic saline solution maintained at 32° C. Diffusion of the compound was monitored by removing aliquots from the receiver side and analyzing these samples by HPLC.
The human skin used in all experiments was obtained from a medical school. All cadavers were refrigerated at death and excision was performed within 24 hours post-mortem. The skin was first treated with Betadine surgical scrub (Povidone-Iodine solution) and surfactant (the skin was scrubbed if dirty), rinsed with sterile water and then with Betadine rinse solution. The skin was then air-dried and swabbed with mineral oil prior to excision. A dermatome was used for excising the skin to […]. (-350 microns) thickness. Saline solution was used to rinse the excess mineral oil from the skin prior to treatment with Eagle's minimole essential medium (minerals, amino acids and sugars). To this solution, 15% glycerol was added and the skin was allowed to set for two hours. It was then removed from solution, packaged and frozen in liquid N2. The samples, packed in dry ice were shipped in styrofoam containers and kept frozen until use.
For the flux experiments, skin samples were removed from the freezer and thawed immediately prior to use. The samples were examined visually for any tears or holes, then cut into smaller pieces, peeled from the gauze backing and mounted across the diffusion chamber with the stratum corneum side up. The donor-side cap was placed on top and the unit was clamped in place. The receiver-side was filled with a saline solution and stirred. The material in the receiver-side was sterile normal saline solution, which was adjusted to approximate the tonicity of the buffer solution on the donor-side. One ml of the drug solution was pipeted onto the donor-side of the skin and 50 microliter aliguots were withdrawn from the receiver-side at the various time intervals. These samples were injected onto an HPLC column under the aforementioned conditions.
The donor solutions were prepared as 1.0 M (approximately 20% W/V) arecoline HCl or arecoline HBr in a phosphate, citrate, borate buffer adjusted to various pH values. Each flux experiment was repeated three to five times.

## COC(=O)C1=CCCN(C)C1 [arecoline]
[1]
  stability of the free base in solution: rapidly hydrolizes
[2]; 0.01 M
  partition coefficient (K): 0.654
[2]; 1.0 M
  partition coefficient (K): 0.756
[3]
  dissociation to the free base: 99.9%
[4]; aqueous buffers, pH 6.4 to 9.0
  rate of arecoline diffusion versus pH: increases with increasing pH values
[4]; lower pH values (below 8)
  difference in rate between Caucasian and Negro skin: differences were observed between these two skin types
[4]; pH 6.4 of 1M solution, skin RC (Right Chest), donor N
  Flux: 0.017 mg/cm^2 /hr.
[4]; pH 6.4 of 1M solution, skin donor N
  Mean Flux: 0.017 mg/cm^2 /hr.
[4]; pH 7.0 of 1M solution, does not include the Negro skin
  Mean Flux: 0.069 mg/cm^2 /hr.
[4]; pH 7.0 of 1M solution, skin RB (Right Back), donor C
  Flux: 0.0545 mg/cm^2 /hr. and 0.0678 mg/cm^2 /hr. and 0.0833 mg/cm^2 /hr.
[4]; pH 7.0 of 1M solution, skin RB (Right Back), donor N
  Flux: 0.0101 mg/cm^2 /hr. and 0.0057 mg/cm^2 /hr.
[4]; pH 7.5 of 1M solution, does not include the Negro skin
  Mean Flux: 0.185 mg/cm^2 /hr.
[4]; pH 7.5 of 1M solution, skin RB (Right Back), donor C
  Flux: 0.1651 mg/cm^2 /hr. and 0.1486 mg/cm^2 /hr. and 0.2246 mg/cm^2 /hr. and 0.2003 mg/cm^2 /hr.
[4]; pH 7.5 of 1M solution, skin RB (Right Back), donor N
  Flux: 0.0383 mg/cm^2 /hr.
[4]; pH 8.0 of 1M solution, C and N skin
  Mean Flux: 0.448 mg/cm^2 /hr.
[4]; pH 8.0 of 1M solution, skin LB (Left Back), donor C
  Flux: 0.4524 mg/cm^2 /hr. and 0.3817 mg/cm^2 /hr.
[4]; pH 9.0, across 5 cm^2 in 24 hours
  amount transferred across skin: approximately 85 mgs
[4]; pH 9.0 of 1M solution, C and N skin
  Mean Flux: 0.837 mg/cm^2 /hr.
[4]; pH 9.0 of 1M solution, skin LB (Left Back), donor C
  Flux: 0.8868 mg/cm^2 /hr. and 0.8154 mg/cm^2 /hr.
[4]; pH 9.0 of 1M solution, skin RB (Right Back), donor C
  Flux: 0.8551 mg/cm^2 /hr.
[4]; pH values of 8 and 9
  difference in rate between Caucasian and Negro skin: There does not appear to be any difference in rate
